# Earlier results as cited in publication PMC3010531 (Journal of the American Chemical Society, 2010).
# How the values were obtained:
# [1] = target: mH2A1.1 (G224E) (Homo sapiens, UniProt O75367, G224E); details: point-mutant; ref 13c
# [2] = target: mH2A1.1 (Homo sapiens, UniProt O75367); details: ref 13c
# [3] = target: mH2A1.2 (Homo sapiens, UniProt O75367); details: splice-variant; ref 13c
# Sequence of mH2A1.2 (O75367 162-372 isoform O75367-1): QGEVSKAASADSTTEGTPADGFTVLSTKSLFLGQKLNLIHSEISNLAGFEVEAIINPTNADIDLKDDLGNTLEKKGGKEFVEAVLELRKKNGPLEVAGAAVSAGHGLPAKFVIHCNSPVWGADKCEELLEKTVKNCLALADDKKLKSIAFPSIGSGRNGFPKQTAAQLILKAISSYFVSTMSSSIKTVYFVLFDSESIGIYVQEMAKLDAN
# Sequence of mH2A1.1 (O75367 184-367 limits assumed, species assumed): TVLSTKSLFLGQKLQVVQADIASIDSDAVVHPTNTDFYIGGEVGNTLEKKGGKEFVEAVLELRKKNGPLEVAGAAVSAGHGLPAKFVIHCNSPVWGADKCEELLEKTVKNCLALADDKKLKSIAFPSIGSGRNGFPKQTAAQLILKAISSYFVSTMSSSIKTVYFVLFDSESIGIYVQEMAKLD
# Sequence of mH2A1.1 (G224E) (O75367 whole entry G224E, species assumed): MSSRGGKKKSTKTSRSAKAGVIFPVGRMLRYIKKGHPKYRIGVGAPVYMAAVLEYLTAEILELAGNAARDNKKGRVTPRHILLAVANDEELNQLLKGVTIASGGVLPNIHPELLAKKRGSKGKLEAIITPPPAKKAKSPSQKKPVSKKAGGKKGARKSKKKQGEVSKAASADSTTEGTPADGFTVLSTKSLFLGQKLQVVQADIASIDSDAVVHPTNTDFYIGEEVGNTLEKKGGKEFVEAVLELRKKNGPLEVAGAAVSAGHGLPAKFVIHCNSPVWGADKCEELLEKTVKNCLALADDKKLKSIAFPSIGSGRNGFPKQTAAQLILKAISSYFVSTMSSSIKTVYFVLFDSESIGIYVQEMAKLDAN
structure (smiles),measurement,setting,value
"Nc1ncnc2c1ncn2[C@@H]1O[C@H](COP(=O)(O)OP(=O)(O)OC[C@H]2OC(O)[C@H](O)[C@@H]2O)[C@@H](O)[C@H]1O (stereo partly drawn) [ADPR, ADP-ribose]",binding of ADPR by mH2A1.1 (G224E),[1],abolishes ADPR binding
same,affinity of free ADPR for mH2A1.1,[2],"modest, in the μM range"
same,binding of ADPR by mH2A1.2,[3],does not bind ADPR
